Laboratory results from ChEMBL document CHEMBL5291721, “A preclinical secondary pharmacology resource illuminates target-adverse drug reaction associations of marketed drugs” (Nat Commun, 2023).

Experiments:
[1] = molecular target: 5-hydroxytryptamine receptor 2A (Homo sapiens, UniProt P28223); format: functional, cell-based
Histamine H3 receptor = Histamine H3 receptor (Homo sapiens, UniProt Q9Y5N1)
Histamine H2 receptor = Histamine H2 receptor (Homo sapiens, UniProt P25021); format: functional, cell-based
Melanocortin receptor 4 = Melanocortin receptor 4 (Homo sapiens, UniProt P32245)
Glucocorticoid receptor = molecular target: T1, Glucocorticoid receptor (Homo sapiens, UniProt P04150)
T1 sequence (P04150 whole entry): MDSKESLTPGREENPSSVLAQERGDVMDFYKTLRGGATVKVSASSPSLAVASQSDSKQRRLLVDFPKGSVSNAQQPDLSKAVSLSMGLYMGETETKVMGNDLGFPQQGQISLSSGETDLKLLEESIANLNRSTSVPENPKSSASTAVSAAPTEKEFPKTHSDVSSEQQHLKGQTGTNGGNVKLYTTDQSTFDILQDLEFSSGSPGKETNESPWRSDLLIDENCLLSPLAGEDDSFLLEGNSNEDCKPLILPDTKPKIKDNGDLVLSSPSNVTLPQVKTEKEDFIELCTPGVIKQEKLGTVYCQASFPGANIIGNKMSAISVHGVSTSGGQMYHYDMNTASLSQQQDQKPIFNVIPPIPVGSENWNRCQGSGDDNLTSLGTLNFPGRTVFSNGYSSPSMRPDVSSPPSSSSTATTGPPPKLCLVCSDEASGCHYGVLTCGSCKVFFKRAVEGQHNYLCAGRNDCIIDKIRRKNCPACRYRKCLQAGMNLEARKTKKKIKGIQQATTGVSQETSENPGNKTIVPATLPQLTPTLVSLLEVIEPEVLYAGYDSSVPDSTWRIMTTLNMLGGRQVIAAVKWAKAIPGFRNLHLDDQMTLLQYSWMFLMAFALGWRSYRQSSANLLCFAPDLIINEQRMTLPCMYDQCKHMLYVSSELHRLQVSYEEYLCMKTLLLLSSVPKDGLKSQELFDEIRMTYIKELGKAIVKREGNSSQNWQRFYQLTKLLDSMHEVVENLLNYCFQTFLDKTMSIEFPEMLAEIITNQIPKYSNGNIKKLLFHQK

[2] = molecular target: 5-hydroxytryptamine receptor 2B (Homo sapiens, UniProt P41595); format: functional, cell-based
Estrogen receptor = molecular target: T2, Estrogen receptor (Homo sapiens, UniProt P03372)
T2 sequence (P03372 whole entry): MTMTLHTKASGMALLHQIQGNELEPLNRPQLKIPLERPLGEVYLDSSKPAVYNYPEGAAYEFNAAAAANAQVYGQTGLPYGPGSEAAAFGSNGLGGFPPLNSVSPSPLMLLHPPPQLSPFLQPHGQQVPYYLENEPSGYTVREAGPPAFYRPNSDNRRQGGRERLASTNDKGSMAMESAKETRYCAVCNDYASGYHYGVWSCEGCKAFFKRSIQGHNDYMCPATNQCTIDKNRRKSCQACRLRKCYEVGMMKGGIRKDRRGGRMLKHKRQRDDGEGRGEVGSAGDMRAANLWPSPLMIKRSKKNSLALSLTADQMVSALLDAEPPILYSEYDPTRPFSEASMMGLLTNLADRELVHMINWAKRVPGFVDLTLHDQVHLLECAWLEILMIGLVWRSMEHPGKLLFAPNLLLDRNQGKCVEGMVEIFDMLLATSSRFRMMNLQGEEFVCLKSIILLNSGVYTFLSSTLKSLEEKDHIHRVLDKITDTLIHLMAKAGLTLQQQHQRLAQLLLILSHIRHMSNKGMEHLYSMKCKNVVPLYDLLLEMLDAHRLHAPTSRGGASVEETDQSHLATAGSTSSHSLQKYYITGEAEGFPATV

[3] = molecular target: Prostaglandin G/H synthase 1 (Homo sapiens, UniProt P23219); format: functional
Endothelin-1 receptor = molecular target: T3, Endothelin-1 receptor (Homo sapiens, UniProt P25101)
T3 sequence (P25101 whole entry): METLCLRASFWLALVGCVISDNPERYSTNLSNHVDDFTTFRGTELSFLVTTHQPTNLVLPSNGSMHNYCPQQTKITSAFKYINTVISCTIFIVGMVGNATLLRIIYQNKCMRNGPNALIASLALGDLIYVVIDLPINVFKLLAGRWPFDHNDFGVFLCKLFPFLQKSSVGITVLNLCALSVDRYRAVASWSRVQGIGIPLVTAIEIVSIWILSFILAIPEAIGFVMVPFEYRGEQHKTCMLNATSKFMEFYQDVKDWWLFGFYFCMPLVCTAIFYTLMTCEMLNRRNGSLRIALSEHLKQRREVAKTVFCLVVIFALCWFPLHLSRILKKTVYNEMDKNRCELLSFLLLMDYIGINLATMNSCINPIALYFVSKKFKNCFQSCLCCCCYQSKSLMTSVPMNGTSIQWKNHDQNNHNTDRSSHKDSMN

Mu-type opioid receptor = Mu-type opioid receptor (Homo sapiens, UniProt P35372)
Also: assay procedure not described here.

5-hydroxytryptamine receptor 2A, sequence (P28223 whole entry): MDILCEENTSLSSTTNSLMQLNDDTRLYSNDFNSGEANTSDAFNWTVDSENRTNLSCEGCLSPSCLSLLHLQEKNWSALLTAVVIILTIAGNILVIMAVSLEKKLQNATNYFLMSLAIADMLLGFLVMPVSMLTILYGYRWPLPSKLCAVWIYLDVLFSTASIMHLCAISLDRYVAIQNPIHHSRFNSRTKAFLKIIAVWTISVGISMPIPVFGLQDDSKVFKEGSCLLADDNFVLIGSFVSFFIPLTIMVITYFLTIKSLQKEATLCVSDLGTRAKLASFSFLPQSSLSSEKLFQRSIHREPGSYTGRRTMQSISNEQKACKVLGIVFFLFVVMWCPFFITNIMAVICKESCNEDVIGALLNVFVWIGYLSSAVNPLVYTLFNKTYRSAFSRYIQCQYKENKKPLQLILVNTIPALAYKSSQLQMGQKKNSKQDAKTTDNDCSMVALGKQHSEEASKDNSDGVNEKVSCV
Mu-type opioid receptor, sequence (P35372 whole entry): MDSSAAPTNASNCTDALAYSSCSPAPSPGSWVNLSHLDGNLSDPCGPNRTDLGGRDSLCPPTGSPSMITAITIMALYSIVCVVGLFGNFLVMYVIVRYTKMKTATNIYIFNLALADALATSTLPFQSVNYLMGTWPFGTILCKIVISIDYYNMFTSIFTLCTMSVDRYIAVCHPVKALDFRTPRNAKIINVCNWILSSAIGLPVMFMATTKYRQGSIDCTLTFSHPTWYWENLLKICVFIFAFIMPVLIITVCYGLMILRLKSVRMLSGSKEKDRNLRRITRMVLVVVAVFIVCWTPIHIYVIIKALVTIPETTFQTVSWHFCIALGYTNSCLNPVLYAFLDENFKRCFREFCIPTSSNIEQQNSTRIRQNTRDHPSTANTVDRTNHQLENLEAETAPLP
5-hydroxytryptamine receptor 2B, sequence (P41595 whole entry): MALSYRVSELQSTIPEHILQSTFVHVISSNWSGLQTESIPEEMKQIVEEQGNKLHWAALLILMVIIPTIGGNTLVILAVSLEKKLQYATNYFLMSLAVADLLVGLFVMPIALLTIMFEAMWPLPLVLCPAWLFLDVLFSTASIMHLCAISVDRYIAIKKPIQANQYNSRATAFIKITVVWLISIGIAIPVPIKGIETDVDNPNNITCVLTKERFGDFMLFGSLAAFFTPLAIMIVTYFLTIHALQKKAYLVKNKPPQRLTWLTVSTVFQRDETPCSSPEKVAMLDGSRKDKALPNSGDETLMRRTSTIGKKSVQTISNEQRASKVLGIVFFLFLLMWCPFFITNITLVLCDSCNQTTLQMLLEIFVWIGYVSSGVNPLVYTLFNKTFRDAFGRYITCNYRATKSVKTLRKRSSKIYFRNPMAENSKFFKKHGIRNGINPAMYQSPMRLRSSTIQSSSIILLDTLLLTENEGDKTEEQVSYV
Melanocortin receptor 4, sequence (P32245 whole entry): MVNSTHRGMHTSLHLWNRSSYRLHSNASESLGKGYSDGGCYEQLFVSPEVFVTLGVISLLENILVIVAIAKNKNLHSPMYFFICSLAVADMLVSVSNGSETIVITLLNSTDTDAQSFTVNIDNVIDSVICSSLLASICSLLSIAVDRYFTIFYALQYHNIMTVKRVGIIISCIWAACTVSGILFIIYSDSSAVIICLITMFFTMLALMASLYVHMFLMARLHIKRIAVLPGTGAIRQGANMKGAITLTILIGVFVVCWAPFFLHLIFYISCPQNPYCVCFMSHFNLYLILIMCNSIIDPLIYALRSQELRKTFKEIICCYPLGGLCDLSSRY
Prostaglandin G/H synthase 1, sequence (P23219 whole entry): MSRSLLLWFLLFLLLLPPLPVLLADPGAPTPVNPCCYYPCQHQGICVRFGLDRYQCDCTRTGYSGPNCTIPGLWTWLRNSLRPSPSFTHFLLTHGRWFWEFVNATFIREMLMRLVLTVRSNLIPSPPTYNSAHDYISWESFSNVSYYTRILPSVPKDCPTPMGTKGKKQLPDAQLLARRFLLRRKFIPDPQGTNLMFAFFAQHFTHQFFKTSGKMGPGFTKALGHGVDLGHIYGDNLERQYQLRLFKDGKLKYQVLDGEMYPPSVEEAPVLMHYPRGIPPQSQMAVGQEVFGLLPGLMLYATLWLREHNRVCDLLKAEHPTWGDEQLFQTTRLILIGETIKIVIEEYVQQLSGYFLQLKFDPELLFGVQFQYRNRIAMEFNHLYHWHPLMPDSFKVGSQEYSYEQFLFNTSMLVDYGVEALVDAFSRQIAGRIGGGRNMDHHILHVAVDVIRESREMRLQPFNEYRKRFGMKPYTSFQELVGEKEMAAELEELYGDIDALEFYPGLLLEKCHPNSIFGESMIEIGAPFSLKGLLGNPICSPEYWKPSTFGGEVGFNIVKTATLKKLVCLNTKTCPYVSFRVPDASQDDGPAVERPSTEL
Histamine H2 receptor, sequence (P25021 whole entry): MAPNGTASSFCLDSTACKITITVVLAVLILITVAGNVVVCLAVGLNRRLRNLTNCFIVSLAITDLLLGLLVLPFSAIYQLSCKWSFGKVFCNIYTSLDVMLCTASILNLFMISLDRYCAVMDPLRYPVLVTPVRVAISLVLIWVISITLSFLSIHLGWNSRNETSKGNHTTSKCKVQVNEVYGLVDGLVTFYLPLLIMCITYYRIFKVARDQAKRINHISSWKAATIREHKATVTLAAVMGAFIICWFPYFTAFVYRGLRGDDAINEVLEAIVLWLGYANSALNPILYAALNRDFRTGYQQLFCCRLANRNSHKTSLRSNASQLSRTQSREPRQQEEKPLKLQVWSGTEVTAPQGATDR
Histamine H3 receptor, sequence (Q9Y5N1 whole entry): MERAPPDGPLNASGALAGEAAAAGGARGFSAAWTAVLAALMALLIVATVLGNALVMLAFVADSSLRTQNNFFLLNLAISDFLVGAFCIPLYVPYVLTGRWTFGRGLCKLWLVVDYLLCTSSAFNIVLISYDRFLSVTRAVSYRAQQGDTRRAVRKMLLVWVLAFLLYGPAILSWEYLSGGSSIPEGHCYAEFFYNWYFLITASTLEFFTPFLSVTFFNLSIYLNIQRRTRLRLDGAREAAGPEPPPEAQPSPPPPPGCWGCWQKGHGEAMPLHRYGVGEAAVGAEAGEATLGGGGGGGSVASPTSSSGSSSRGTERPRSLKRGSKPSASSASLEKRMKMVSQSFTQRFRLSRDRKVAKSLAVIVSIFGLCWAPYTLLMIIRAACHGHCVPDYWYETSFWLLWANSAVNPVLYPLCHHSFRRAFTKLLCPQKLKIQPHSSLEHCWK

| Compound | AC50 [1] [µM] | AC50 (Histamine H3 receptor) [µM] | AC50 (Histamine H2 receptor) [µM] | AC50 (Melanocortin receptor 4) [µM] | AC50 (Glucocorticoid receptor) [µM] | AC50 [2] [µM] | AC50 (Estrogen receptor) [µM] | AC50 [3] [µM] | AC50 (Endothelin-1 receptor) [µM] | AC50 (Mu-type opioid receptor) [µM] |
| --- | --- | --- | --- | --- | --- | --- | --- | --- | --- | --- |
| CC(C)C[C@H](NC(=O)[C@H](Cc1ccccc1)NC(=O)c1cnccn1)B(O)O [BORTEZOMIB] | > 30 | > 30 | > 30 | > 30 | > 30 |  |  |  |  |  |
| O=C(Cc1cccs1)N[C@@H]1C(=O)N2C(C(=O)[O-])=C(C[n+]3ccccc3)CS[C@H]12 [CEPHALORIDINE] | > 30 |  | > 30 |  |  | > 30 | > 30 | > 30 |  |  |
| Nc1nnc(-c2cccc(Cl)c2Cl)c(N)n1 [LAMOTRIGINE] |  | > 10 | > 10 | > 30 |  |  |  |  | > 30 | > 30 |
| COc1cc2c(cc1OC)C1CC(=O)C(CC(C)C)CN1CC2 (stereo not given) [TETRABENAZINE] | > 30 | > 30 |  |  |  |  |  |  | > 30 | > 30 |
| O=c1[nH]c2ccccc2n1CCN1CCN(c2cccc(C(F)(F)F)c2)CC1 [FLIBANSERIN] |  |  |  |  |  | > 30 | > 30 | > 30 |  |  |
| C#CCN(C)Cc1ccccc1 [PARGYLINE] | > 30 |  | > 30 |  |  | > 30 | > 30 | > 30 |  |  |
| CN(C)CCCC1(c2ccc(F)cc2)OCc2cc(C#N)ccc21 (stereo not given) [CITALOPRAM] |  | > 10 |  | > 30 | > 30 | > 30 | > 30 | > 30 | > 30 |  |
| NCC1(CC(=O)O)CCCCC1 [GABAPENTIN] |  | > 30 | > 10 | > 30 | > 30 | > 30 |  | > 30 | > 30 | > 30 |
| CNC1(C)C2CCC(C2)C1(C)C (stereo not given) [MECAMYLAMINE] | > 10 |  | > 10 | > 10 | > 10 |  |  |  |  | > 30 |
| CC(=O)SCC(Cc1ccccc1)C(=O)NCC(=O)OCc1ccccc1 (stereo not given) [RACECADOTRIL] | > 30 | > 30 | > 30 | > 30 | > 30 |  |  |  | > 30 | > 30 |
| O=C(c1ccccc1)c1ccc2n1CCC2C(=O)O (stereo not given) [KETOROLAC] |  | > 10 | > 30 | > 10 |  |  |  |  |  | > 30 |
| C[C@@H](O)[C@H]1C(=O)N2C(C(=O)O)=C(SCCN=CN)C[C@H]12 [IMIPENEM ANHYDROUS] | > 300 | 180 |  |  |  |  |  |  | > 300 | > 300 |
| CCOc1ccccc1OCCN[C@H](C)Cc1ccc(OC)c(S(N)(=O)=O)c1 [TAMSULOSIN] | > 30 | > 10 | > 10 | > 30 |  |  |  |  |  | 5.3 |
| CO[C@@H]1[C@@H](OC(N)=O)[C@@H](O)[C@H](Oc2ccc3c(O)c(NC(=O)c4ccc(O)c(CC=C(C)C)c4)c(=O)oc3c2C)OC1(C)C [NOVOBIOCIN] | > 30 | > 30 |  |  |  |  |  |  | > 30 | > 30 |
| OCCOCCN1CCN(C(c2ccccc2)c2ccc(Cl)cc2)CC1 (stereo not given) [HYDROXYZINE] | > 30 | > 10 | > 10 | > 30 |  |  |  |  | > 30 | > 30 |
| CC(C)NCC(O)COc1ccc(CC(N)=O)cc1 (stereo not given) [ATENOLOL] |  | > 30 | > 30 | > 30 |  |  |  |  |  |  |
